# Source: ChEMBL document CHEMBL5316292 (J Med Chem, 2023)
# Activity calls are given as the source filed them. No cut-off for these calls is given here.
# Tests used:
# [1] = molecular target: T1, Bromodomain-containing protein 4 (Homo sapiens, UniProt O60885); assay: Binding affinity to human partial length BRD4 BD1 (N44 to E168 residues) expressed in bacterial expression system using H4K5acIC8acK12acK16ac-biotinylated peptide as substrate preincubated for 30 mins followed by substrate addition by AlphaScreen assay
# [2] = molecular target: T1, Bromodomain-containing protein 4; assay: Induction of BRD4 degradation in human MDA-MB-231 cells at 10 uM by immunoblotting analysis; assay type: cell-based; details: time 8.0 hrs
smiles,measurement,setting,value
CC(=O)OC[C@]12CC[C@H]3[C@@H](C[C@H]4O[C@]45CC=CC(=O)[C@]35C)[C@]1(O)CC[C@@]2(O)[C@@](C)(O)[C@H]1CC(C)=C(C)C(=O)O1,IC50,[1],17.9 nM
same,Activity,[2],Active
